pIC50: −log10 of the molar value.
What was measured:
Human M4 = target: T1, Human M4 (Homo sapiens, UniProt P08173); assay: mAChR M4 cell-based functional calcium flux assay (human M4/Gqi5/CHO cells); details: for Emin (human M4): % ACh maximum at 30 μM; for pIC50: decrease of the response to an EC80 concentration of acetylcholine
T1 construct: expressed in transfected cells; host or cells: CHO-K1 (ATCC), stably expressing M4 and Gqi5
T1 sequence (P08173 1-479): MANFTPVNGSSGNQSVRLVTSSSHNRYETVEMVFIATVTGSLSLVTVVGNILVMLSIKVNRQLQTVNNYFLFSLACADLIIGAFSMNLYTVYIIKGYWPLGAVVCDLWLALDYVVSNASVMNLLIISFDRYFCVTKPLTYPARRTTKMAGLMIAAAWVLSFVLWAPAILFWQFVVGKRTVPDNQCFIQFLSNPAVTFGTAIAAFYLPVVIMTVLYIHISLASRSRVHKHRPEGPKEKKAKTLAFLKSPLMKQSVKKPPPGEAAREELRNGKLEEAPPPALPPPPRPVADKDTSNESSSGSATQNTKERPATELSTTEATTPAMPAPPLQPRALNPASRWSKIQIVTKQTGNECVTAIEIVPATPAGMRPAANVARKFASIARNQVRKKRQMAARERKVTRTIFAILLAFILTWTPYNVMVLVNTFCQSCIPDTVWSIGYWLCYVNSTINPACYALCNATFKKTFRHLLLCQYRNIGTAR
Protocol: (§1) Human, rat, or mouse M4. cDNA, along with the chimeric G protein Gqi5, were transfected into Chinese hamster ovary (CHO-K1) cells purchased from the American Type Culture Collection using Lipofectamine2000. M4/Gqi5/CHO cells were grown in Ham's F-12 medium containing 10% heat-inactivated fetal bovine serum (FBS), 20 mM HEPES, 500 μg/mL G418 sulfate, and 200 μg/mL Hygromycin B.
(§2) For high throughput measurement of agonist-evoked increases in intracellular calcium, CHO-K1 cells stably expressing muscarinic receptors were plated in growth medium lacking G418 and hygromycin at 15,000 cells/20 μL/well in Greiner 384-well black-walled, tissue culture (TC)-treated, clear-bottom plates (VWR). Cells were incubated overnight at 37° C. and 5% CO2. The next day, cells were washed using an ELX 405 (BioTek) with assay buffer; the final volume was then aspirated to 20 μL. Next, 20 μL of a 2.3 μM stock of Fluo-4/acetoxymethyl ester (Invitrogen, Carlsbad, CA), prepared as a 2.3 mM stock in DMSO and mixed in a 1:1 ratio with 10% (w/v) Pluronic F-127 and diluted in assay buffer, was added to the wells and the cell plates were incubated for 50 min at 37° C. and 5% CO2. Dye was removed by washing with the ELX 405 and the final volume was aspirated to 20 μL. Compound master plates were formatted in a 10 point concentration-response curve (CRC) format (1:3 dilutions) in 100% DMSO with a starting concentration of 10 or 1 mM using a BRAVO liquid handler (Agilent). Test compound CRCs were then transferred to daughter plates (240 nL) using the Echo acoustic plate reformatter (Labcyte, Sunnyvale, CA) and then diluted into assay buffer (40 μL) to a 2× stock using a Thermo Fisher Combi (Thermo Fisher Scientific, Waltham, MA).
(§3) Calcium flux was measured using the Functional Drug Screening System (FDSS) 6000 or 7000 (Hamamatsu Corporation, Tokyo, Japan) as an increase in the fluorescent static ratio. Compounds were applied to cells (20 μL, 2×) using the automated system of the FDSS at 2 seconds into the protocol and the data were collected at 1 Hz. At 143 s, 10 μL of an EC20 concentration of the muscarinic receptor agonist acetylcholine was added (5×), followed by the addition of 12 μL of an EC80 concentration of acetylcholine at the 268 s time point (5×). Agonist activity was analyzed as a concentration-dependent increase in calcium mobilization upon compound addition. Positive allosteric modulator activity was analyzed as a concentration-dependent increase in the EC20 acetylcholine response. Antagonist activity was analyzed as a concentration-dependent decrease in the EC80 acetylcholine response; for the purposes of the tables herein, an IC50 (inhibitory concentration 50) was calculated as a concentration-dependent decrease of the response elicited by an EC80 concentration of acetylcholine. Concentration-response curves were generated using a four-parameter logistical equation in XLFit curve fitting software (IDBS, Bridgewater, NJ) for Excel (Microsoft, Redmond, WA) or Prism (GraphPad Software, Inc., San Diego, CA) or the Dotmatics software platform (Dotmatics, Bishop's Stortford, UK).
(§4) Compounds were synthesized as described above. Activity (IC50 and Emin) was determined in the mAChR M4 cell-based functional assay as described above and the data are shown in Table 2 and Table 3. The compound number corresponds to the compound numbers used in the examples and Tables 1 and 1.1.

Rat M4 = target: T2, Rat M4 (Rattus norvegicus, UniProt P08485); assay: mAChR M4 cell-based functional calcium flux assay (rat M4/Gqi5/CHO cells); details: for Emin (rat M4): % ACh maximum at 30 μM; for pIC50: decrease of the response to an EC80 concentration of acetylcholine
T2 construct: expressed in transfected cells; host or cells: CHO-K1 (ATCC), stably expressing M4 and Gqi5
T2 sequence (P08485 1-478): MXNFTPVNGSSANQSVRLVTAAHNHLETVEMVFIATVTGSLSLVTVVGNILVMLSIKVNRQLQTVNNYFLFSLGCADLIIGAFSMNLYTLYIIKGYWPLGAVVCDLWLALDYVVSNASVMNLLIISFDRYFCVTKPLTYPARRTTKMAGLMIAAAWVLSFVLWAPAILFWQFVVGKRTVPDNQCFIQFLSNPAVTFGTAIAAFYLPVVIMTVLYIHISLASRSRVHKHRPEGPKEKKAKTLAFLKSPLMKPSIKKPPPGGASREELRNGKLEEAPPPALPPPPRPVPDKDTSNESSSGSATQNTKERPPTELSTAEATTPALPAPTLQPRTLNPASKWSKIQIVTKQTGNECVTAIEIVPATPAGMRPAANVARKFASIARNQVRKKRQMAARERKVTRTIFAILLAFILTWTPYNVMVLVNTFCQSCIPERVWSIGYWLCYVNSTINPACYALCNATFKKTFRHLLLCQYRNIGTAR
Protocol: as §1, §2, §3, §4

Emin (human M4) (Human M4) [%] | pIC50 (Human M4) | Emin (rat M4) (Rat M4) [%] | IC50 (Rat M4; cells printed in μM, decrease of the EC80 acetylcholine response) [µM] | pIC50 (Rat M4) | Structure (SMILES)
5 | 7.79 |  |  |  | Cc1nn(C)cc1-c1nnc(NCC2CC23CCN(CC2CCCCC2)CC3)c2ccccc12 (centres unmarked) [Compound 94, N-[[6-(cyclohexylmethyl)-6-azaspiro[2.5]octan-2-yl]methyl]-4-(1,3-dimethylpyrazol-4-yl)phthalazin-1-amine]
 |  | 26.5 | > 10 |  | Cc1cnn(C)c1-c1ccc(NCC2CC23CCN(CCC2CCCO2)CC3)nn1 (centres unmarked) [Compound 4, 6-(1,4-dimethyl-1H-pyrazol-5-yl)-N-((6-(2-(tetrahydrofuran-2-yl)ethyl)-6-azaspiro[2.5]octan-1-yl)methyl)pyridazin-3-amine]
4 | 6.95 |  |  |  | CC(=O)Nc1ccc(-c2ccc(NC[C@H]3CC34CCN(CC3CCCCC3)CC4)nn2)cc1 [Compound 125, N-[4-[6-[[(2S)-6-(cyclohexylmethyl)-6-azaspiro[2.5]octan-2-yl]methylamino]pyridazin-3-yl]phenyl]acetamide]
 |  | 5 |  | 6.46 | CC(C)(C)CCN1CCC2(CC1)CC2CNc1ccc(C2=CCCC2)nn1 (centres unmarked) [Compound 90, 6-(cyclopenten-1-yl)-N-[[6-(3,3-dimethylbutyl)-6-azaspiro[2.5]octan-2-yl]methyl]pyridazin-3-amine]
10 | 5.92 |  |  |  | c1cc(N2CCOCC2)nnc1NCC1CC12CCN(CC1CCOCC1)CC2 (centres unmarked) [Compound 85, 6-morpholino-N-[[6-(tetrahydropyran-4-ylmethyl)-6-azaspiro[2.5]octan-2-yl]methyl]pyridazin-3-amine]
9 | 8.34 |  |  |  | Cc1nn(C)cc1-c1nnc(NCC2CC23CCN(CC2CCOCC2)CC3)c2ccccc12 (centres unmarked) [Compound 93, 4-(1,3-dimethylpyrazol-4-yl)-N-[[6-(tetrahydropyran-4-ylmethyl)-6-azaspiro[2.5]octan-2-yl]methyl]phthalazin-1-amine]

Second part, the molecule before the results:

Structure (SMILES) | Emin (human M4) (Human M4) [%] | pIC50 (Human M4) | Emin (rat M4) (Rat M4) [%] | IC50 (Rat M4; cells printed in μM, decrease of the EC80 acetylcholine response) [µM] | pIC50 (Rat M4)
Fc1ccc(CN2CCC3(CC2)CC3CNc2ccc(-c3cc(F)ccc3Cl)nn2)cc1 (centres unmarked) [Compound 99, 6-(2-chloro-5-fluoro-phenyl)-N-[[6-[(4-fluorophenyl)methyl]-6-azaspiro[2.5]octan-2-yl]methyl]pyridazin-3-amine] | 3 | 7.05 |  |  | 
Cc1nn(C)cc1-c1nnc(NCC2CC23CCN(CC2CC4C=CC2C4)CC3)c2ccccc12 (centres unmarked) [Compound 96, N-[[6-(5-bicyclo[2.2.1]hept-2-enylmethyl)-6-azaspiro[2.5]octan-2-yl]methyl]-4-(1,3-dimethylpyrazol-4-yl)phthalazin-1-amine] | 5 | 8.53 |  |  | 
Cc1ccc(/C=C/c2ccc(NCC3CC34CCN(CCC(C)(C)C)CC4)nn2)cc1 (centres unmarked) [Compound 92, N-[[6-(3,3-dimethylbutyl)-6-azaspiro[2.5]octan-2-yl]methyl]-6-[(E)-2-(p-tolyl)vinyl]pyridazin-3-amine] |  |  | 4 |  | 6.00
CC(C)(C)CCN1CCC2(CC1)CC2COc1ccc(-c2cc(F)ccc2Cl)nn1 (centres unmarked) [Compound 77, 1-(((6-(2-chloro-5-fluorophenyl)pyridazin-3-yl)oxy)methyl)-6-(3,3-dimethylbutyl)-6-azaspiro[2.5]octane] |  |  | 3 |  | 6.54
Fc1ccc(Cl)c(-c2ccc(NCC3CC34CCN(Cc3ccccc3)CC4)nn2)c1 (centres unmarked) [Compound 101, N-[(6-benzyl-6-azaspiro[2.5]octan-2-yl)methyl]-6-(2-chloro-5-fluoro-phenyl)pyridazin-3-amine] | 3 | 7.16 |  |  | 
Fc1ccc(Cl)c(-c2ccc(NCC3CC34CCN(Cc3ccccc3F)CC4)nn2)c1 (centres unmarked) [Compound 100, 6-(2-chloro-5-fluoro-phenyl)-N-[[6-[(2-fluorophenyl)methyl]-6-azaspiro[2.5]octan-2-yl]methyl]pyridazin-3-amine] | 2 | 7.05 |  |  | 
Fc1ccc(Cl)c(-c2ccc(OCC3CC34CCN(CC3CCCCC3)CC4)nn2)c1 (centres unmarked) [Compound 87, 2-[[6-(2-chloro-5-fluoro-phenyl)pyridazin-3-yl]oxymethyl]-6-(cyclohexylmethyl)-6-azaspiro[2.5]octane] |  |  | 3 |  | 5.98
Cc1nn(C)cc1-c1ccc(NCC2CC23CCN(CC2CC4C=CC2C4)CC3)nn1 (centres unmarked) [Compound 9, N-[[6-(5-bicyclo[2.2.1]hept-2-enylmethyl)-6-azaspiro[2.5]octan-2-yl]methyl]-6-(1,3-dimethylpyrazol-4-yl)pyridazin-3-amine] |  |  | 3.98 |  | 7.92
Fc1ccc(Cl)c(-c2ccc(NC[C@@H]3CC34CCN(Cc3ccccn3)CC4)nn2)c1 [Compound 113, 6-(2-chloro-5-fluoro-phenyl)-N-[[(2R)-6-(2-pyridylmethyl)-6-azaspiro[2.5]octan-2-yl]methyl]pyridazin-3-amine] | 2 | 7.05 |  |  | 
Fc1ccc(Cl)c(-c2ccc(NC[C@@H]3CC34CCN(Cc3ccccc3)CC4)nn2)c1 [Compound 112, N-[[(2R)-6-benzyl-6-azaspiro[2.5]octan-2-yl]methyl]-6-(2-chloro-5-fluoro-phenyl)pyridazin-3-amine] | 2 | 6.90 |  |  | 
N#Cc1ccccc1CN1CCC2(CC1)CC2CNc1ccc(-c2cc(F)ccc2Cl)nn1 (centres unmarked) [Compound 98, 2-[[2-[[[6-(2-chloro-5-fluoro-phenyl)pyridazin-3-yl]amino]methyl]-6-azaspiro[2.5]octan-6-yl]methyl]benzonitrile] | 5 | 6.28 |  |  | 
Cc1nn(C)cc1-c1nnc(NCC2CC23CCN(CCC(C)(C)C)CC3)c2ccccc12 (centres unmarked) [Compound 95, N-[[6-(3,3-dimethylbutyl)-6-azaspiro[2.5]octan-2-yl]methyl]-4-(1,3-dimethylpyrazol-4-yl)phthalazin-1-amine] | 5 | 8.59 |  |  | 
Fc1cccc(CN2CCC3(CC2)CC3CNc2ccc(-c3cc(F)ccc3Cl)nn2)c1 (centres unmarked) [Compound 97, 6-(2-chloro-5-fluoro-phenyl)-N-[[6-[(3-fluorophenyl)methyl]-6-azaspiro[2.5]octan-2-yl]methyl]pyridazin-3-amine] | 3 | 7.08 |  |  | 

Reference: US12600726B2, “Antagonists of the muscarinic acetylcholine receptor M4” (Vanderbilt University, priority 2017, dated 2026)
